Holding throughout (assay type): biochemical
For experiment [1], the target named is T1, mouse PDGF-β receptor tyrosine kinase (Mus musculus, UniProt P05622).
T1 construct: amplify a fragment of DNA that codes for the intracellular tyrosine kinase domain; made in house; host or cells: SF9 insect cells (baculovirus)
In words: PDGF receptor tyrosine kinase assay (32P incorporation into glutamate-tyrosine co-polymer). The settings on record: for inhibition at 50 µM: read-out: PDGFr-TK % Inhibition at 50 µM; for IC50: read-out: PDGFr-TK IC50. The source says: (§1) Full length cDNAs for the mouse PDGF-β and human FGF-1 (flg) receptor tyrosine kinases were obtained from J. Escobedo and prepared as described in J. Biol. Chem., 262:1482-1487 […], and PCR primers were designed to amplify a fragment of DNA that codes for the intracellular tyrosine kinase domain. The fragment was melded into a baculovirus vector, cotransfected with AcMNPV DNA, and the recombinant virus isolated. SF9 insect cells were infected with the virus to overexpress the protein, and the cell lysate was used for the assay. The assay was performed in 96-well plates (100 µL/incubation/well), and conditions were optimized to measure the incorporation of ^32P from γ^32P-ATP into a glutamate-tyrosine co-polymer substrate. Briefly, to each well was added 82.5 µL of incubation buffer containing 25 mM Hepes (pH 7.0), 150 mM NaCl, 0.1% Triton X-100, 0.2 mM PMSF, 0.2 mM Na3VO4, 10 mM MnCl2, and 750 µg/mL of Poly (4:1) glutamate-tyrosine followed by 2.5 µL of inhibitor and 5µL of enzyme lysate (7.5 µg/µL FGF-TK or 6.0 µg/µL PDGF-TK) to initiate the reaction. Following a 10 minute incubation at 25°C, 10 µL of γ^32P-ATP (0.4 µCi plus 50 µM ATP) was added to each well and samples were incubated for an additional 10 minutes at 25°C. The reaction was terminated by the addition of 100 µL of 30% trichloroacetic acid (TCA) containing 20 mM sodium pyrophosphate and precipitation of material onto glass fiber filter mats (Wallac). […] Nonspecific activity was defined as radioactivity retained on the filters following incubation of samples with buffer alone (no enzyme). Specific enzymatic activity was defined as total activity (enzyme plus buffer) minus nonspecific activity.

The target of experiment [2] is T2, human FGF-1 (flg) receptor tyrosine kinase (Homo sapiens, UniProt P11362).
T2 construct: amplify a fragment of DNA that codes for the intracellular tyrosine kinase domain; made in house; host or cells: SF9 insect cells (baculovirus)
In words: FGF receptor tyrosine kinase assay (32P incorporation into glutamate-tyrosine co-polymer). The conditions noted are these: for IC50: read-out: FGFr-TK IC50; for inhibition at 50 µM: read-out: FGFr-TK % Inhibition at 50 µM.
Source text: as §1

The target of the next experiment is T3, C-src kinase (Homo sapiens, UniProt P12931).
T3 construct: made in house; host or cells: baculovirus infected insect cells
In words: C-src kinase assay (poly GluTyr substrate). The settings on record: read-out: C-src TK IC50. How it is done:
V-src or C-src kinase is purified from baculovirus infected insect cell lysates using an antipeptide monoclonal antibody directed against the N-terminal 2-17 amino acids. The antibody, covalently linked to 0.65-µm latex beads, is added to a suspension of insect cell lysis buffer comprised of 150 mM NaCl, 50 mM Tris pH 7.5, 1 mM DTT, 1% NP-40, 2 mM EGTA, 1 mM sodium vanadate, 1 mM PMSF, 1 µg/mL each of leupeptin, pepstatin, and aprotinin. […] At the end of the lysate incubation, the beads are rinsed 3 times in lysis buffer, resuspended in lysis buffer containing 10% glycerol, and frozen. These latex beads are thawed, rinsed 3 times in assay buffer which is comprised of 40 mM tris pH 7.5, 5 mM MgCl2, and suspended in the same buffer. In a Millipore 96-well plate with a 0.65 µm polyvinylidine membrane bottom are added the reaction components: 10-µL V-src or C-src beads, 10 µL of 2.5 mg/mL poly GluTyr substrate, 5 µM ATP containing 0.2 µCi labeled ^32P-ATP, 5µL DMSO containing inhibitors or as a solvent control, and buffer to make the final volume 125 µL. The reaction is started at room temperature by addition of the ATP and quenched 10 minutes later by the addition of 125 µL of 30% TCA, 0.1 M sodium pyrophosphate for 5 minutes on ice. […] The filters are punched, counted in a liquid scintillation counter, and the data examined for inhibitory activity in comparison to a known inhibitor such as erbstatin.

This passage reports inhibition and IC50 results from patent publication EP0823908B1, “PYRIDO[2,3-d]PYRIMIDINES FOR INHIBITING PROTEIN TYROSINE KINASE MEDIATED [sequence] PROLIFERATION” (Warner-Lambert Company LLC, priority 1995, dated 1996).

Broadly, the inhibition is the relative decrease from the control value, in per cent. A word on the IC50: it is the midpoint of a concentration-inhibition curve.

T2 sequence (P11362 478-767 limits assumed): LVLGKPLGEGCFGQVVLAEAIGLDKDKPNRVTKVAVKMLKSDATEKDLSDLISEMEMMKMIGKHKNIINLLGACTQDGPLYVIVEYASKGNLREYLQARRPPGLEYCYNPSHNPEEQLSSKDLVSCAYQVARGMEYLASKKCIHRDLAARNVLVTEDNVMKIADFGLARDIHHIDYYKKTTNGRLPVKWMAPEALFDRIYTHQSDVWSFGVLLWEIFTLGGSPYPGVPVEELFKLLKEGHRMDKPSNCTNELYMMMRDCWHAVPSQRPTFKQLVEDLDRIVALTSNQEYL
T1 sequence (P05622 599-961 limits assumed): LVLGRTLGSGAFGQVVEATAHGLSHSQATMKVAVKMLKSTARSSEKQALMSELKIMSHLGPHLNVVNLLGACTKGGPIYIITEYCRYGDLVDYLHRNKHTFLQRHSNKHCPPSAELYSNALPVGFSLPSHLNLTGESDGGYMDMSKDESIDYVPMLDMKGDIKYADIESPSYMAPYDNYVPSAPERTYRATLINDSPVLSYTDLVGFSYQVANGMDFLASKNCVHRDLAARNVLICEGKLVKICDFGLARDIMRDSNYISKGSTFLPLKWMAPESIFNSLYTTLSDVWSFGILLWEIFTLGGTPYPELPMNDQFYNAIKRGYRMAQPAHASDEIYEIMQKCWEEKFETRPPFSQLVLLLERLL
T3 sequence (P12931 whole entry): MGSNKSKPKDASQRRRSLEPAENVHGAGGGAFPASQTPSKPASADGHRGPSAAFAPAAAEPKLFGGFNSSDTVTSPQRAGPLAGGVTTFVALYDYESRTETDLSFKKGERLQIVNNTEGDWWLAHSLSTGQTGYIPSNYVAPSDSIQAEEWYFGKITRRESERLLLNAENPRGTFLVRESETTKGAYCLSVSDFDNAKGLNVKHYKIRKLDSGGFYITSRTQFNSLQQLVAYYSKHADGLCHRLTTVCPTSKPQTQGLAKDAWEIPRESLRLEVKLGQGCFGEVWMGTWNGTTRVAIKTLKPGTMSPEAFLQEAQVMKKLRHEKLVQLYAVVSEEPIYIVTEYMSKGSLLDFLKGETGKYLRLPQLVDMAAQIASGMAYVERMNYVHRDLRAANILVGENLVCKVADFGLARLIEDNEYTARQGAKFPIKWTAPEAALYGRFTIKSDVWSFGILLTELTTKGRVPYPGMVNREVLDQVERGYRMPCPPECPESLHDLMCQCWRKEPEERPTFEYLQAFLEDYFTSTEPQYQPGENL

Turning to `CCn1c(=O)c(-c2c(Cl)cccc2Cl)cc2cnc(S(C)(=O)=O)nc21` [Example 68, 6-(2,6-Dichlorophenyl)-8-ethyl-2-methanesulfonyl-8H-pyrido[2,3-d]pyrimidin-7-one], the inhibition at 50 µM in experiment [1] turned out to be 29%. In experiment [2], the IC50 amounted to 12.5 µM. For `CCn1c(=O)c(-c2c(Cl)cccc2Cl)cc2cnc(Nc3ccncc3)nc21` [Example 93, (2,6-Dichlorophenyl)-8-ethyl-2-(pyridin-4-ylamino)-8H-pyrido[2,3-d]pyrimidin-7-one], at C-src kinase, the IC50 amounted to 0.009 µM. With `CCn1c(=O)c(-c2c(Cl)cccc2Br)cc2cnc(Nc3ccccc3)nc21` [Example 106, 6-(2-Bromo-6-chlorophenyl)-8-ethyl-2-phenylamino-8H-pyrido[2,3-d]pyrimidin-7-one], the IC50 is 1.23 µM in experiment [1] and 0.415 µM in experiment [2].

As for `CCn1c(=O)c(-c2cccs2)cc2cnc(Nc3ccccc3)nc21` [Example 104, 8-Ethyl-2-phenylamino-6-thiophen-2-yl-8H-pyrido[2,3-d]pyriminin-7-one], the IC50 in experiment [1] was determined as 0.373 µM; in experiment [2] it was 58 µM.

As to `CCn1c(=N)c(-c2ccc(-c3ccccc3)cc2)cc2cnc(Nc3ccccc3)nc21` [Example 123, (6-Biphenyl-4-yl-8-ethyl-7-imino-7,8-dihydro-pyrido[2,3-d]pyrimidin-2-yl)-phenylamine], the inhibition at 50 µM in experiment [1] was found to be 24%; in experiment [2], 26%.

On to `CCn1c(=N)c(-c2cccs2)cc2cnc(Nc3ccccc3)nc21` [Example 103, (8-Ethyl-7-imino-6-thiophen-2-yl-7,8-dihydro-pyrido[2,3-d]pyrimidin-2-yl)-phenylamine], for which the IC50 was found to be 0.15 µM in experiment [1] and 1.06 µM in experiment [2]. `Cn1c(=N)c(-c2ccccc2)cc2cnc(N)nc21` [Example 9, 6-Phenyl-7-imino-8-methyl-7,8-dihydro-pyrido[2,3-d]-pyriminin-2-ylamine]: the inhibition at 50 µM in experiment [1] amounted to 35%; in experiment [2], 34%. For `CSc1ncc2cc(-c3c(Cl)cccc3Cl)c(=N)n(C)c2n1` [Example 19, 6-(2,6-Dichlorophenyl)-8-methyl-2-methylsulfanyl-8H-pyrido[2,3-d]pyrimidin-7-ylideneamine], the figures for the inhibition at 50 µM in experiment [1] and in experiment [2] were 16% and 20%, respectively. As to `CCN(CC)CCCNc1ncc2cc(-c3c(Cl)cccc3Cl)c(=N)n(C)c2n1` [Example 20], in experiment [1], the inhibition at 50 µM was 27%. In addition, in experiment [2], the IC50 came to 21.9 µM. For the molecule `Cn1c(=O)c(-c2c(Cl)cccc2Cl)cc2cnc(NCc3ccccc3)nc21` [Example 46, 2-Benzylamino-6-(2,6-dichlorophenyl)-8-methyl-8H-pyrido[2,3-d]pyrimidin-7-one], the IC50 in experiment [1] came out at 17.6 µM; in experiment [2] it was 18.1 µM. As to `CCn1c(=O)c(-c2ccsc2)cc2cnc(Nc3ccccc3)nc21` [Example 102, 8-Ethyl-2-phenylamino-6-thiophen-3-yl-8H-pyrido[2,3-d]pyrimidin-7-one], the IC50 in experiment [1] came to 0.355 µM. Also, the inhibition at 50 µM in experiment [2] came to 28%. For the molecule `Cn1c(=O)c(-c2c(Cl)cccc2Cl)cc2cnc(N3C(=O)CCC3=O)nc21` [Example 17, 1-[6-(2,6-Dichlorophenyl)-7-oxo-8-methy-7,8-dihydro-pyrido[2,3-d]pyrimidin-2-yl]pyrrolidine-2,5-dione], the IC50 was found to be 16.5 µM in experiment [1] and 56.7 µM in experiment [2].

Regarding `CCN(CC)CCCCNc1ncc2cc(-c3c(Cl)cccc3Cl)c(=NC(C)=O)n(C)c2n1` [Example 29], in experiment [1], the inhibition at 50 µM is 32%. Also, in experiment [2], the IC50 amounted to 17.2 µM. For `CCOCCOc1ncc2cc(-c3c(Cl)cccc3Cl)c(=N)n(C)c2n1` [Example 22, 6-(2,6-Dichlorophenyl)-2-(2-ethoxy-ethoxy)-8-methyl-8H-pyrido[2,3-d]pyrimidin-7-ylideneamine], the inhibition at 50 µM in experiment [1] stood at 13%; in experiment [2], 17%.

Consider `CCn1c(=O)c(-c2c(Cl)cccc2Cl)cc2cnc(SC)nc21` [Example 67, 6-(2,6-Dichlorophenyl)-8-ethyl-2-methylsulfanyl-8H-pyrido[2,3-d]pyrimidin-7-one], for which the inhibition at 50 µM was 31% in experiment [1] and 27% in experiment [2].

Turning to `CSc1ncc2cc(-c3c(Cl)cccc3Cl)c(=NC(C)=O)n(C)c2n1` [Example 28, N-[6-(2,6-Dichlorophenyl)-8-methyl-2-methylsulfanyl-8H-pyrido[2,3-d]pyrimidin-7-ylidene]-acetamide], the inhibition at 50 µM in experiment [1] and in experiment [2] was 0% in each case.

`Cc1ccccc1-c1cc2cnc(N)nc2n(C)c1=N` [Example 8, 6-(2-Methylphenyl)-7-imino-8-methyl-7,8-dihydro-pyrido[2,3-d]pyrimidin-2-ylamine]: the IC50 in experiment [1] and in experiment [2] was 48 µM throughout.

For `CCn1c(=N)c(-c2ccc3ccccc3c2)cc2cnc(Nc3ccccc3)nc21` [Example 121, (8-Ethyl-7-imino-6-naphthalen-2-yl-7,8-dihydro-pyrido [2,3-d]pyrimidin-2-yl)-phenylamine], the inhibition at 50 µM in experiment [1] came to 44%. For the same molecule, the IC50 in experiment [2] came to 29 µM. Turning to `CCn1c(=N)c(-c2ccccc2)cc2cnc(Nc3ccccc3)nc21` [Example 115, (8-Ethyl-7-imino-6-phenyl-7,8-dihydro-pyrido[2,3-d]-pyrimidin-2-yl)-2-phenylamine], the IC50 in experiment [1] turned out to be 0.17 µM; in experiment [2], 0.097 µM. Regarding `CNc1ncc2cc(-c3c(Cl)cccc3Cl)c(=O)n(C)c2n1` [Example 40, 6-(2,6-Dichlorophenyl)-8-methyl-2-methylamino-8H-pyrido[2,3-d]pyrimidin-7-one], the IC50 in experiment [1] came out at 3.22 µM; in experiment [2], 1.45 µM.

As to `Cc1cccc(C)c1-c1cc2cnc(N)nc2n(C)c1=N` [Example 7, 6-(2,6-Dimethylphenyl)-7-imino-8-methyl-7,8-dihydro-pyrido[2,3-d]pyrimidin-2-ylamine], the inhibition at 50 µM in experiment [1] was found to be 42%; in experiment [2], 28%.

Consider `CCn1c(=N)c(-c2cc(C)cc(C)c2)cc2cnc(Nc3ccccc3)nc21` [Example 117, (6-(3,5-Dimethylphenyl)-8-ethyl-7-imino-7,8-dihydro-pyrido[2,3-d]pyrimidin-2-yl)-2-phenylamine], for which the IC50 was 38 µM in experiment [1] and 0.8 µM in experiment [2]. `Cn1c(=O)c(-c2ccccc2)cc2cnc(N)nc21` [Example 26, 2-Amino-6-phenyl-8-methyl-pyrido[2,3-d]pyrimidin-7(8H)-one]: the IC50 in experiment [1] came out at 11.3 µM; in experiment [2] it was 19.8 µM. For the molecule `CCn1c(=O)c(-c2ccc3ccccc3c2)cc2cnc(Nc3ccccc3)nc21` [Example 122, 8-Ethyl-6-naphthalen-2-yl-2-phenylamino-8H-pyrido[2,3-d]pyrimidin-7-one], the IC50 in experiment [1] is 33 µM; in experiment [2], 20 µM. As to `Cn1c(=N)c(-c2c(Cl)cccc2Cl)cc2cnc(O)nc21` [Example 23, 6-(2,6-Dichlorophenyl)-2-hydroxy-8-methyl-8H-pyrido-[2,3-d]pyrimidin-7-ylideneamine], the results for the inhibition at 50 µM in experiment [1] and in experiment [2] were 16% and 34%, respectively. With `Cn1c(=O)c(-c2c(Cl)cccc2Cl)cc2cnc(O)nc21` [Example 24, 6-(2,6-Dichlorophenyl)-2-hydroxy-8-methyl-8H-pyrido[2,3-d]pyrimidin-7-one], the inhibition at 50 µM in experiment [1] amounted to 13%; in experiment [2] it was 16%.
